Results published in patent US12552797B2, “Process for making (3-[cyclopropylethoxy(difluoro)methyl]-6-6[5-fluoro-6-(2,2,2-trifluoroethoxy-3-pyridyl]- [1,2,4]triazolo[4,3-a]pyrazine” (Praxis Precision Medicines, Inc., priority 2019, dated 2026).
≈ marks a conversion by molar mass, not a printed value. Where two headings read alike, the source gives them in different places.

Legend:
Assay type in all cases: physicochemical
[1] = XRPD, NMR and LC-MS of Compound 1 before and after jet milling
Experimental: X-ray powder diffraction (XRPD) data were collected using a Bruker D8 Advance powder diffractometer. The samples were irradiated with copper K-alpha X-rays (λ=1.54179 Å) with the generator operating at 40 kV/40 mA. The samples were scanned in continuous mode from 3° to 40° (2 θ) with a sample rotation speed of 15 rpm and a scanning rate of 10°/min.
Proton NMR (^1H-NMR), Florine NMR (^19F-NMR) and LC-MS analyses were also carried out on Compound 1 before jet milling and after jet milling.

[2] = Stability of suspension formulations in methylcellulose/Poloxamer 188 vehicles (appearance, concentration, purity, PSD); design: key: *: homogeneous suspension initially, sedimentation occurred over time and returned to homogeneous after gentle agitation for ~1 min; #: viscous homogeneous suspension initially, sedimentation occurred over time and returned to homogeneous after gentle agitation for ~2 mins; conditions: 96 h at RT
Experimental: As shown in Tables 9-11, various suspension formulations were tested for stability under different conditions.
To prepare a suspension weigh required amount of milled Compound 1 into a glass container and add corresponding volume of the vehicle. Thoroughly disperse the compound into a homogenous suspension using an overhead mixer at the final concentration target. Concentrations were prepared at 0.1 mg/mL and at 10 mg/mL. The suspension products were physically evaluated on visual appearance, concentration, purity and PSD.
The vehicles are prepared by dissolving 0.5% by weight of either 400 cP methylcellulose or 4000 cP methylcellulose and 0.2% Poloxamer 188. For the preserved suspensions, additionally 1.0% by volume of paraben preservative solution was dissolved into vehicle using an overhead mixer. The paraben preservative solution was prepared by dissolving 0.10 g methyl paraben, 0.025 g propylparaben in 9.875 g propylene glycol dissolved by mixing with a stir bar at room temperature for 1 hour.

[3] = Solubility of Compound 1 in solution formulation vehicles (visual); conditions: for solubility: organic solvent or mixture, thermodynamic from solid, read-out: maximum solubility (visually determined)
Experimental: 2400 μL PEG 400 was added to a 8 mL glass vial together with 3 mg of Compound 1 and mixed together by Vortex and sonicated for 5 min. Then 600 μL Cremophor RH40 was added to the container, mixed together by Vortex and sonicated for 5 min. Then 3000 μL water was added to the container, mixed together by Vortex and sonicated for 5 min.
About 15 mg compound were weighted to a 8 mL glass container and then 2 mL Prototype 2a was added to the glass container. The contents were mixed together by vortexing and sonication for 5 min.
About 15 mg compound was weighed to an 8 mL glass containers and then 2 mL of Prototype 2b was added to the container and mixed together by vortex and sonicated for 5 min. […] in Prototype 2b with 7.5 mg/mL was not clear. Then another 140 μL of Prototype 2b vehicle was added to the container and mixed together by vortex and sonicated for 5 min.
600 μL PEG 400 was added to a 4 mL glass vial together with 3 mg of Compound 1 and mixed together by Vortex and sonicated for 5 min. Then 150 μL Cremophor RH40 was added to the container and mixed together by Vortex and sonicated for 5 min. Then 750 μL water was added to the container and mixed together by vortexing and sonicated for 5 min.
(§1) Cremophor RH40, Capmul MCM Co, Triethylcitrate and Ethanol were added together on a weight basis to a glass container and mixed together to form a solution mixture. […] Additional Compound 1 was added with vortexing and sonication until Compound 1 was no longer soluble. The resulting maximum solubility was visually determined to be between 25 and 50 mg/mL.
as §1, with “Capryol 90, Labrasol” for “Cremophor RH40, Capmul MCM Co, Triethylcitrate”, “Transcutol HP” for “Ethanol”, “volumetric” for “weight”, “60” for “25”, “80” for “50”

[4] = Kinetic solubility of amorphous solid dispersions (ASD) in FaSSIF
Experimental: Amorphous solid dispersion including Compound 1 was prepared with a mixture of Compound 1 and polymer. Nine ASD formulations were prepared using for screening 9 different polymers as the solid dispersant (PVPK30, PVPVA64, Soluplus, HPMC E5, HPMC ASMG, HPMC ASMF, HPMC ASHG, Eudragit EPO, Eudragit L100). About 10 mg of Compound 1 and 40 mg of corresponding polymer were weighed into 40-mL glass vials, and dissolved in 1 mL of MeOH/DCM (1:1, v/v) to prepare stock solution. […] The product after evaporation was dried under vacuum at 30° C. overnight and further characterized by appearance, PLM, XRPD and mDSC.
The nine ASD formulations were tested for kinetic solubility in FaSSIF at the concentration of 2 mg/mL. The experiment was run at 37° C. with the rate of 450 rpm. 0.5 mL of the mixture was taken out at each time point and centrifuged before running UPLC (a shortened runtime version of the described HPLC method was used to determine the Compound 1 levels).

physical form change (XRPD) ([1]; after jet-milling): no physical form change
Visual Appearance ([2]; 0.5% 400 cP MC, 0.2% Poloxamer 188, 0.1 mg/mL): *
Visual Appearance ([2]; 0.5% 400 cP MC, 0.2% Poloxamer 188, 10 mg/mL): *
Visual Appearance ([2]; 0.5% 400 cP MC, 0.2% Poloxamer 188 and 1.0% of paraben preservative solution, 0.1 mg/mL): *
Visual Appearance ([2]; 0.5% 400 cP MC, 0.2% Poloxamer 188 and 1.0% of paraben preservative solution, 10 mg/mL): *
Visual Appearance ([2]; 0.5% 4000 cP MC, 0.2% Poloxamer 188, 0.1 mg/mL): #
Visual Appearance ([2]; 0.5% 4000 cP MC, 0.2% Poloxamer 188, 10 mg/mL): #
Visual Appearance ([2]; 0.5% 4000 cP MC, 0.2% Poloxamer 188 and 1.0% of paraben preservative solution, 0.1 mg/mL): #
Visual Appearance ([2]; 0.5% 4000 cP MC, 0.2% Poloxamer 188 and 1.0% of paraben preservative solution, 10 mg/mL): #
dissolution in vehicle (visual) ([3]; Prototype 1: 40% PEG 400/10% Cremophor RH40/50% Water, 0.5 mg/mL): dissolved completely
dissolution in vehicle (visual) ([3]; Prototype 2a vehicle, 7.5 mg/mL): clear solution
dissolution in vehicle (visual) ([3]; Prototype 2b vehicle, 7.5 mg/mL): not clear
dissolution in vehicle (visual) ([3]; Prototype 3, 2 mg/mL): dissolved completely
solubility ([3]; Prototype 4 solution formulation vehicle, Prototype 4: 36% Cremophor RH40+45% Capmul MCM C8+9% Triethylcitrate+10% Ethanol): 25000 to 50000 µg/mL (≈ 61400 to 123000 µM)
solubility ([3]; Prototype 5 solution formulation vehicle, Prototype 5: 40 Capryol 90+20% Labrasol+40% Transcutol HP): 60000 to 80000 µg/mL (≈ 147000 to 196000 µM)
solubility kinetic at 15 min ([4]; FaSSIF, thermodynamic from solid, 2 mg/mL, 37° C., 450 rpm, 15 min): 5.7 µg/mL (≈ 14 µM)
solubility kinetic at 30 min ([4]; FaSSIF, thermodynamic from solid, 2 mg/mL, 37° C., 450 rpm, 30 min): 8.1 µg/mL (≈ 19.9 µM)
solubility kinetic at 60 min ([4]; FaSSIF, thermodynamic from solid, 2 mg/mL, 37° C., 450 rpm, 60 min): 7.1 µg/mL (≈ 17.4 µM)
solubility kinetic at 120 min ([4]; FaSSIF, thermodynamic from solid, 2 mg/mL, 37° C., 450 rpm, 120 min): 11.6 µg/mL (≈ 28.5 µM)
Final pH ([4]; kinetic solubility test in FaSSIF): 6.54
SMILES: CCOC(F)(F)c1nnc2cnc(-c3cnc(OCC(F)(F)F)c(F)c3)cn12 [Compound 1, 3-(ethoxydifluoromethyl)-6-(5-fluoro-6-(2,2,2-trifluoroethoxy)pyridin-3-yl)-[1,2,4]triazolo[4,3-a]pyrazine]
chemical or structural change (NMR, LC-MS) ([1]; due to jet milling): no observed chemical or structural change
